Patent US20220313777A1, “INHALED DELIVERY OF PEPTIDE MIMICS OF CXCL10 FOR TARGETED ANTI-FIBROTIC THERAPY” (University of Pittsburgh - Of the Commonwealth System of …, priority 2019, published 2022)

Experiments:
[1] = test system: primary lung fibroblasts from scleroderma patients; experiment: RT-qPCR of pro-fibrotic mRNAs in TGF-β-treated primary lung fibroblasts; type: cell-based, human; settings: peptide 10 ng/mL plus TGF-β 10 ng/mL, 24 hours, delta-delta Ct, GAPDH housekeeping
Protocol: Primary lung fibroblasts from scleroderma patients were treated with TGF-β alone, or with IP-10-1 (SEQ ID NO: 2; FIGS. 1A-1C), IP-10-2 (SEQ ID NO: 3; FIGS. 1D-1F), or IP-10-3 (SEQ ID NO: 4; FIGS. 1G-1I) peptide (10 ng/mL) in the presence or absence of TGF-β (10 ng/mL) for 24 hours and then analyzed by RT-qPCR for the fibrotic ECM markers tenascin C (FIGS. 1A, 1D, 1G), collagen 1 (FIGS. 1B, 1E, 1H) and fibronectin (FIGS. 1C, […], 1I). Treatment with TGF-β alone induced expression of mRNAs for tenascin C (TNC), collagen 1 (COL1A1), and fibronectin (FN1) in primary lung fibroblasts. When cells were treated with an IP-10 peptide in combination with TGF-β, the IP-10 peptides reduced or prevented induction in mRNA expression of TNC, COL1A1, and FN1.
Primary lung fibroblasts from scleroderma patients were plated in 6-well plates in complete medium and incubated overnight. The next day, the medium was changed to quiescent medium and the cells were incubated in this medium for 24 hours. The following day, cells were left untreated, treated with 10 ng/mL of IP-10-1 (SEQ ID NO: 2), IP-10-2 (SEQ ID NO: 3) or IP-10-3 (SEQ ID NO: 4) peptide, treated with 10 ng/mL TGF-β, or treated with the combination of peptide and TGF-β for 24 hours. Total RNA was extracted using the Qiagen miRNeasy kit (Qiagen) and treated with DNase1, according to the manufacturer's instructions. RNA was then quantified and converted to cDNA using the Clontech RNA to cDNA EcoDry Double Primed Premix (Takara). qPCR was performed using PowerUp Sybr Green (Invitrogen) on an Applied Biosystems Quant Studio 3 instrument. Primers were from IDT and were designed using IDT Primer Quest and NCBI Primer Blast tools. The delta-delta Ct method was used to determine relative expression of the pro-fibrotic mRNAs for tenascin C (TNC), collagen 1 (COL1A1), and fibronectin (FN1). GAPDH was used as a housekeeping gene.

[2] = biological target: T1, CXCR3B isoform (Homo sapiens, UniProt P49682); settings: described in WO 2013/032853 and WO 2015/112505; cited from earlier work
T1 construct: host or cells: dermal endothelial cells (as described in the cited PCT publications)
T1 sequence (P49682 1-415 isoform P49682-2): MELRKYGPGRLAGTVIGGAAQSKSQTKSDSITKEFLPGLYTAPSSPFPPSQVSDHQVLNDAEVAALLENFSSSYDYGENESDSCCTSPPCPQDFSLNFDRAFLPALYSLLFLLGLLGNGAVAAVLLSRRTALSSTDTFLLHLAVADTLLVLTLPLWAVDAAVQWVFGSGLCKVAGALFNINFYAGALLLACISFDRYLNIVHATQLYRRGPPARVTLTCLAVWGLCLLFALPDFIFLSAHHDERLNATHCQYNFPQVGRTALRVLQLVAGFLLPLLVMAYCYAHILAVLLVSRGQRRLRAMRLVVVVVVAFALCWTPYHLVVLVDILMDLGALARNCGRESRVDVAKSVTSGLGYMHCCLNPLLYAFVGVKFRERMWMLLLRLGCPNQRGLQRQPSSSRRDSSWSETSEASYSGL

[3] = test system: angiogenesis; settings: earlier work, not tested in anti-fibrotic applications; cited from earlier work

Sequence | expression of collagen 1 (COL1A1) mRNA relative to treatment with TGF-β alone [1] | expression of fibronectin (FN1) mRNA relative to treatment with TGF-β alone [1] | expression of tenascin C (TNC) mRNA relative to treatment with TGF-β alone [1] | activation of the CXCR3B isoform [2] | inhibition of angiogenesis [3]
PESKVIKNLLKVASKERSKRSP [IP-10-1, CXCL10 (IP-10) peptide variant] | significantly reduced or prevented | significantly reduced or prevented | significantly reduced or prevented |  | 
PESRVIKNLLRVVSKEKSRRSP [IP-10-2, CXCL10 (IP-10) peptide variant] | significantly reduced or prevented | significantly reduced or prevented | significantly reduced or prevented |  | 
FAKAIKNFAKAVAKFA [IP-10-3, CXCL10 (IP-10) peptide variant] | significantly reduced or prevented | significantly reduced or prevented | significantly reduced or prevented |  | 
PESKAIKNLLKAVSKEMSKRSP [IP-10p, CXCL10 peptide consisting of the α-helical domain (residues 77-98 of human CXCL10)] |  |  |  | activates the CXCR3B isoform | able to inhibit angiogenesis
